According to patent US20160100585A1, “Pesticidal Mixtures” (priority 2012, published 2016):

Experiments:
Type in all cases: in vivo
Sclerotinia sclerotiorum = assay: Action against Sclerotinia sclerotiorum in soybean using pot trials (Use example FG-6); settings: soy bean cv. Goriziana, pots, 14 days at 20° C; % of the untreated control (infection level 96%); pyraclostrobin 2.5 g ai/100 kg seeds as seed treatment, B. pumilus INR7 10 ml broth per seed as drench
Method: Pyraclostrobin was applied as commercial seed treatment formulation […], Ludwigshafen, Germany). The application of the pyraclostrobin was done as seed treatment and the seeds were treated in the BASF Seed Solutions Technology Center (SSTC) Limburgerhof using a batch lab treater. The respective amount of seeds was placed in the bowl of the treater and the slurry was dosed on the spinning disk. The B. pumilus INR7 were grown in shake flasks and used as fermentation broth with of at least 1×10^12 CFU per ml. This broth was added as a drench solution directly adjacent to the seeds with 10 ml for each seed kernel which makes 50 ml per pot. For the infection, rye kernels inoculated with Sclerotinia sclerotiorum were used. The trial was sown in 8 cm pots and as a substrate a mix of peat substrate and sand in the ratio 1:4 was used. The pots were filled with the substrate and the rye kernels inoculated with Sclerotinia sclerotiorum were placed directly adjacent to the seeds. In each pot 5 soy bean seeds (cv. Goriziana) were sown at a sowing depth of 2 cm, then covered with substrate. For each treatment 5 replications were made. […] For the assessment, the plants were evaluated according to a 2 class evaluation (healthy, diseased). Those figures were converted into efficacies in % of the untreated control and the efficacy (E) was calculated as follows using Abbot's formula.

Gaeumannomyces graminis = assay: Action against Gaeumannomyces graminis in wheat using pot trials (Use example FG-7); settings: wheat cv. JB Asano, pots, 14 days at 20° C; % of the untreated control (infection 96%); pyraclostrobin 2.5 g ai/100 kg seeds as seed treatment, B. pumilus INR7 10 ml broth per seed as drench
Method: Pyraclostrobin was applied as commercial seed treatment formulation […], Ludwigshafen, Germany). The application of the pyraclostrobin was done as seed treatment and the seeds were treated in the BASF Seed Solutions Technology Center (SSTC) Limburgerhof using a batch lab treater. The respective amount of seeds was placed in the bowl of the treater and the slurry was dosed on the spinning disk. The B. pumilus INR7 were grown in shake flasks and used as fermentation broth with of at least 1×10^12 CFU per ml. This broth was added as a drench solution directly adjacent to the seeds with 10 ml for each seed kernel which makes 50 ml per pot. For the assessment, the plants were evaluated according to a 2 class evaluation (healthy, diseased). Those figures were converted into efficacies in % of the untreated control and the efficacy (E) was calculated as follows using Abbot's formula. Experimental setup was identical to Use example FG-6 unless described below. For the infection, rye kernels inoculated with Gaeumannomyces graminis were used. The trial was sown in 8 cm pots and a mix of peat substrate and sand (ratio 1:4) was used as a substrate. The pots were filled with the substrate and the rye kernels inoculated with Gaeumannomyces graminis were placed directly adjacent to the wheat seeds. […] JB Asano) were sown at a sowing depth of 1.5 cm and then covered with substrate. […]

wheat = assay: Improvement of plant height in wheat, pot trials (Use example H-2); settings: wheat cv. JB Asano, pots, 14 days at 20° C; untreated control = 100% (13.9 cm); pyraclostrobin 5 g ai/100 kg seeds as seed treatment, B. pumilus INR7 10 ml broth per seed as drench
Method: Pyraclostrobin was applied as commercial seed treatment formulation STAMINA (200 g/L a.i., BASF SE, Ludwigshafen, Germany).
In pot trials in Limburgerhof greenhouses, Bacillus pumilis INR7 was tested in wheat and maize as solo products and in combination with pyraclostrobin to show effects on plant height. The application of the pyraclostrobin was done as seed treatment and the seeds were treated in the BASF Seed Solutions Technology Center (SSTC) Limburgerhof using a batch lab treater. The respective amount of seeds was placed in the bowl of the treater and the slurry was dosed on the spinning disk.
The bacterials were grown in shake flasks and used as fermentation broth with a CFU of at least 1×10^12 per ml. This broth was added as a drench solution directly adjacent to the seeds with 10 ml for each seed kernel which makes 50 ml per pot.
The trial was sown in 8 cm pots and a mix of peat substrate and sand (ratio 1:4) was used as a substrate. […]
For the assessment, the plant height from all plants was measured in cm. […]
The expected relative plant height of active compound combinations were determined using Colby's formula (Colby, S. R. “Calculating synergistic and antagonistic responses of herbicide combinations”, Weeds 15, pp. 20-22, 1967) and compared with the observed efficacies. […]

**Q.** For Pyraclostrobin, which Observed efficacy (Sclerotinia sclerotiorum) is on record?
**A.** Its Observed efficacy is 16.7%.

**Q.** And the Observed efficacy (Gaeumannomyces graminis)?
**A.** The Observed efficacy was 5.0%.

**Q.** And the “Observed relative plant height” value (wheat)?
**A.** Its value is 99.4%.
